Experimental data taken from patent US20220412958A1, “METHOD FOR EVALUATING SAFETY OF SUBSTANCE IN VITRO USING HUMAN IMMORTALIZED MYELOID CELLS” (MiCAN Technologies Inc., priority 2019, published 2022).

Experiments:
iPS-ML2 [1] = assay: Evaluation test of skin sensitizing property and/or pyrogenic property: IL-6/IL-8 production by immortalized monocytes (ELISA); format: cell-based, human; details: iPS-ML2, 6 hr after addition, culture supernatant ELISA; negative control = medium alone; test substance up to 200 μg/mL
Description: (§1) 1. […] 2. […] This operation was repeated once more. 3. […] 4. […] 5. […] 6. […] 7. […] 8. […] 9. […] 10.

mouse = details: in vivo; cited from earlier work
iPS-ML2 [2] = assay: Detection test of skin sensitizer and/or pyrogen: IL-6/IL-8 production by immortalized monocytes (ELISA); format: cell-based, human; details: iPS-ML2, both 6 hr and 24 hr after culturing; negative control = culture medium alone
Description: as §1

Compound: CC(O)C(=O)O (centres unmarked) [N7, Lactic acid]
- production of IL-6 compared with the negative control (iPS-ML2 [1]): did not show production
- production of IL-8 compared with the negative control (iPS-ML2 [1]): did not show production

Compound: Nc1ccc(N)cc1 [P2, 4-Phenylenediamine]
- skin sensitizing property in LLNA (mouse): have skin sensitizing property

Compound: Staphylococcus aureus Cowan 1 [SAC]
- production amount of IL-6 in the culture supernatant with respect to the negative control (iPS-ML2 [2]): increased as the dilution rate became smaller
- production amount of IL-8 in the culture supernatant with respect to the negative control (iPS-ML2 [2]): increased as the dilution rate became smaller
